Patent publication US10143666B2, “Small molecule inhibitors targeting CAG-repeat RNA toxicity in polyglutamine diseases” (The Chinese University of Hong Kong, priority 2015, dated 2018)
“And” between values parts separate entries of the source, which are not always exact repeats. Equal entries are not always repeated.

Tests used:
[1] = Body temperature (rectum) in R6/2 mice; conditions: for Body temperature vs vehicle: day 7, p<0.05
Description: Body temperature was measured from rectum on day 1 (baseline), and on days 3, 5 and 7.
Body temperature was measured from rectum on day 1 (baseline) and on days 3, 5 and 7.

[2] = target: r(CAG)7 RNA; assay: Isothermal titration calorimetry (ITC) binding assay; conditions: 25° C., DB213 800 μM titrated to r(CAG)7 RNA 40 μM, one binding site model
Description: It was next investigated that whether DB213 would interact physically with CAG-repeat RNA and sequestrate the toxic RNA species from their pathogenic pathway. Isothermal titration calorimetry (ITC)^17 was adopted to identify the RNA-binding property of DB213.
Experiments were carried out using a MicroCal iTC200 isothermal titration calorimeter (GE Healthcare) at 25° C. Data were analyzed using the Origin® scientific plotting software version 7 (Microcal Software Inc.). DB213 (800 μM) was titrated to synthesized r(CAG)7 RNA (40 μM). The thermal titration data were fitted to the ‘one binding site model’ to determine the dissociation constant (KD).

[3] = tested on: EGFPCAG78 RNA expressing SK-N-MC cells; assay: LDH cytotoxicity assay, EGFPCAG78 RNA expressing SK-N-MC cells; type: cell-based, human
Description: (§1) It was next investigated whether DB213 could mitigate expanded CAG-repeat RNA-mediated toxicity in SK-N-MC human neuronal cell. […] Taken together, DB213 could suppress the expanded CAG RNA-mediated but not polyQ protein-mediate toxicity in human neuronal cell.
(§2) SK-N-MC human neuronal cells were seeded on a 24-well plate and lactate dehydrogenase enzyme activity in the cell culture medium was measured 72 hours post-transfection and drugs treatment using the Cytotox 96 non-radioactive cytotoxicity assay (Promega).

[4] = tested on: trMJDCAA/G78 cells; assay: LDH cytotoxicity assay, trMJDCAA/G78 cell model; type: cell-based, human; conditions: only trMJDQ78 protein toxicity
Description: as §1, §2

[5] = tested on: trMJDCAG78 cells; assay: LDH cytotoxicity assay, trMJDCAG78 cell model; type: cell-based, human; conditions: both RNA and polyQ protein toxicities
Description: as §1, §2

[6] = tested on: CGG90 fly; assay: Neurodegeneration in CGG90 fly (Fragile X syndrome model); type: in vivo, Drosophila
Description: Other disease fly models, including α-synuclein (Parkinson's disease)^13, CTG480 (Myotonic dystrophy 1)^14 and CGG90 (Fragile X syndrome)^15 were employed to address the specificity of DB213 on trinucleotide repeat expansion RNA toxicity.
Flies were raised at 21.5° C. on cornmeal medium supplemented with dry yeast. Pseudopupil assay was performed on 12 day-old adult flies as mentioned previously^18. Images were captured by SPOT Insight CCD camera controlled by the SPOT Advanced software (Diagnostic instruments Inc.). External eye assay was performed on 12 day-old adult flies by Olympus SZX-12 stereomicroscope. Eye images were captured using a SPOT Insight CCD camera (Diagnostic instruments Inc.).

[7] = tested on: R6/2 Huntington's mice; assay: Tolerability / mortality in R6/2 Huntington's mice after i.n. or i.v. dosing; conditions: for Mice lost in total: all dose groups; for Highest tolerated dose: R6/2 mice
Description: The objective of this study was to investigate the tolerability of i.n. or i.v. administrated Compound-5 (DB213) treatment on 1) neurological index (NI) scores, 2) body weight, 3) body temperature and 4) activity in open field test in R6/2 Huntington's mice.
i.n.: Group 1: 3 female and 3 male R6/2 mice treated with i.n. vehicle starting at 6 weeks of age and continuing for 7 days; Group 2: 3 female and 3 male R6/2 mice treated i.n. daily with Compound-5 at 50 mg/kg starting at 6 weeks of age and continuing for 7 days; Group 3: 3 female and 3 male R6/2 mice treated i.n. daily with Compound-5 at 100 mg/kg starting at 6 weeks of age and continuing for 7 days; Group 4: 3 female and 3 male R6/2 mice treated i.n. daily with Compound-5 at 200 mg/kg starting at 6 weeks of age and continuing for 7 days; Group 5: 3 female and 3 male R6/2 mice treated i.n. daily with Compound-5 at 300 mg/kg starting at 6 weeks of age and continuing for 7 days.
Compound-5 or vehicle was administered i.n. daily or i.v. twice-a-week starting at 6 weeks of age for 7 days.
i.v. administration: mice received 2 weekly i.v. injections into the tail vein. Mice were weighed on each treatment day and the dose adjusted accordingly to 1 ml/kg dose volume. For example, a mouse with a 30 g body weight received an i.v. injection of 30 μl. The whole i.v. injection process took 5-8 min per mouse.
i.n. administration: using a three fingered scruff, each mouse was restrained twice and held with neck parallel to the table while the compound was administered. The volume was 0.56 ml/kg. For example, a mouse with a 30 g body weight received in total 16.8 μl. During each restraint, 8.4 μl was administered to the left nostril as two 4.2 μl drops, followed by a 15 sec hold, and 8.4 μl was administered to the right nostril as two 4.2 μl drops, followed by a 15 sec hold. Notes were taken on the success of delivery and any lost volume greater than 2 μl were re-administered.
Animals were monitored twice-a-day by laboratory personnel (8 am and […]). […] Definitions of acceptable endpoints included: no spontaneous movements and inability to drink or eat in 24-h observation period, massive bleeding, spontaneous inflammation, missing anatomy, swelling or tumors larger than 20 mm, and inability to right itself in 30 sec period.

[8] = i.v. 200 mg/kg group (so in the source)
[9] = i.v. 300 mg/kg group (so in the source)

CN(C)CCCNC(=N)c1ccc(C(=N)NCCCN(C)C)cc1.Cl.Cl.Cl.Cl [DB213]
Body temperature vs vehicle ([1]; i.n. 100 mg/kg): increased | Body temperature vs vehicle ([1]; i.n. 300 mg/kg): increased | Body temperature (group Mean) ([1]; i.n. daily 50 mg/kg, Day 1 (baseline)): 36.9 | Body temperature (individual mouse) ([1]; i.n. daily 50 mg/kg, Day 1 (baseline), listed as Compound-5, 50 mg/kg): 37 and 35.9 and 36.4 | Body temperature (group Mean) ([1]; i.n. daily 50 mg/kg, Day 3): 36.9 | Body temperature (individual mouse) ([1]; i.n. daily 50 mg/kg, Day 3, listed as Compound-5, 50 mg/kg): 36.9 and 35.8 and 37 | Body temperature (individual mouse) ([1]; i.n. daily 50 mg/kg, Day 5, listed as Compound-5, 50 mg/kg): 37.9 | Body temperature (individual mouse) ([1]; i.n. daily 50 mg/kg, Day 7, listed as Compound-5, 50 mg/kg): 37 and 38.1 | Body temperature (group Mean) ([1]; i.n. daily 100 mg/kg, Day 1 (baseline)): 37.0 | Body temperature (individual mouse) ([1]; i.n. daily 100 mg/kg, Day 3, listed as Compound-5, 100 mg/kg): 37.7 and 37 and 36.9 | Body temperature (individual mouse) ([1]; i.n. daily 100 mg/kg, Day 5, listed as Compound-5, 100 mg/kg): 37.7 (2×) and 36.6 and 37.9 and 36.9 | Body temperature (individual mouse) ([1]; i.n. daily 100 mg/kg, Day 7, listed as Compound-5, 100 mg/kg): 38.1 and 37.7 and 36.9 | Body temperature (individual mouse) ([1]; i.n. daily 200 mg/kg, Day 1 (baseline), listed as Compound-5, 200 mg/kg): 36.9 (2×) and 37.7 | Body temperature (individual mouse) ([1]; i.n. daily 200 mg/kg, Day 3, listed as Compound-5, 200 mg/kg): 36.6 | Body temperature (individual mouse) ([1]; i.n. daily 200 mg/kg, Day 5, listed as Compound-5, 200 mg/kg): 38 | Body temperature (individual mouse) ([1]; i.n. daily 300 mg/kg, Day 5, listed as Compound-5, 300 mg/kg): 38 | Body temperature (individual mouse) ([1]; i.n. daily 300 mg/kg, Day 7, listed as Compound-5, 300 mg/kg): 37.9 | Body temperature (group Mean) ([1]; i.v. 50 mg/kg (treatment discontinued), Day 3, n 1): 37.7 | Body temperature (group Mean) ([1]; i.v. 50 mg/kg (treatment discontinued), Day 5, n 1): 38.0 | Body temperature (group Mean) ([1]; i.v. 50 mg/kg (treatment discontinued), Day 7, n 1): 37.0 | Body temperature, differences between treatment groups ([1]; i.v. dosing, p>0.05): no significant differences | Body temperature (group Mean) ([1]; i.v. twice-a-week 12.5 mg/kg, Day 1 (baseline)): 36.7 | Body temperature (individual mouse) ([1]; i.v. twice-a-week 12.5 mg/kg, Day 1 (baseline), listed as Compound-5): 35.7 and 37 | Body temperature (individual mouse) ([1]; i.v. twice-a-week 12.5 mg/kg, Day 3, listed as Compound-5): 38 | Body temperature (group Mean) ([1]; i.v. twice-a-week 12.5 mg/kg, Day 5): 37.0 | Body temperature (individual mouse) ([1]; i.v. twice-a-week 12.5 mg/kg, Day 5, listed as Compound-5): 37 | Body temperature (individual mouse) ([1]; i.v. twice-a-week 12.5 mg/kg, Day 7, listed as Compound-5): 37 and 38.6 | Body temperature (group Mean) ([1]; i.v. twice-a-week 25 mg/kg, Day 1 (baseline)): 37.0 | Body temperature (individual mouse) ([1]; i.v. twice-a-week 25 mg/kg, Day 1 (baseline), listed as Compound-5): 37.9 and 36.6 and 36.4 and 38.5 | Body temperature (individual mouse) ([1]; i.v. twice-a-week 25 mg/kg, Day 3, listed as Compound-5): 36.9 | Body temperature (individual mouse) ([1]; i.v. twice-a-week 25 mg/kg, Day 5, listed as Compound-5): 37.9 | Body temperature ([1]; intranasal dosing): increased | Kd [2]: 1530 ± 250 nM | Cell death induced by EGFPCAG78 RNA (LDH assay) ([3]; 72 hours post-transfection and treatment): could be suppressed | IC50 ([3]; read-out: IC50, inhibition of cell death induced by EGFPCAG78 RNA (LDH enzyme activity reduced by 50%)): 6.9 ± 1.8 nM | Cell death level (LDH assay) [4]: did not alter the cell death level | Cell death (LDH assay) [5]: only partially inhibited the abnormal cell death | Suppression of neurodegeneration [6]: did not suppress the neurodegeneration | Mortality ([7]; both intranasal and intravenous treatment): increase mortality in dose-dependent manner | Mice lost ([7]; i.n. daily 50 mg/kg, 7 days): 1 mouse | Mice lost, share of group ([7]; i.n. daily 50 mg/kg, 7 days): 16.7% | Mice lost ([7]; i.n. daily 100 mg/kg, 7 days): 2 mice | Mice lost, share of group ([7]; i.n. daily 100 mg/kg, 7 days): 33.3% | Mice lost ([7]; i.n. daily 200 mg/kg, 7 days): 4 mice | Mice lost, share of group ([7]; i.n. daily 200 mg/kg, 7 days): 66.7% | Mice lost ([7]; i.n. daily 300 mg/kg, 7 days): 3 mice | Mice lost, share of group ([7]; i.n. daily 300 mg/kg, 7 days): 50% | Mice lost in total ([7]; i.n. daily, 7 days): 10 mice | Mice lost [7, 8]: 2 mice | Mice lost, share of group [7, 8]: 100% | Mice lost [7, 9]: 2 mice | Mice lost, share of group [7, 9]: 100% | Mice lost ([7]; i.v. twice-a-week 25 mg/kg): 1 mouse | Mice lost, share of group ([7]; i.v. twice-a-week 25 mg/kg): 12.5% | Mice lost ([7]; i.v. twice-a-week 50 mg/kg): 3 mice | Mice lost, share of group ([7]; i.v. twice-a-week 50 mg/kg): 75% | Mice lost in total ([7]; i.v. twice-a-week): 8 mice | Highest tolerated dose ([7]; intranasally): 50 to 100 mg/kg | Highest tolerated dose ([7]; intravenously): 12.5 to 25 mg/kg
